From ChEMBL document CHEMBL1146086, “Design, synthesis, and evaluation of near infrared fluorescent multimeric RGD peptides for targeting tumors” (J Med Chem, 2006)
Numbered stars: 1 amine (or outer) side, 2 acyl side, 3 side chain; on linkers, the order of the positions; unused ones are H or OH. Bridge positions count the residues as written; N and C are the ends. Peptide text beside a SMILES is read from it. I, II: the chains in the order shown. * marks the point of attachment. X2 = CC1(C)C(/C=C/C=C/C=C/C=C2/N(CCC(=O)[*:1])c3ccc4ccccc4c3C2(C)C)=[N+](CCC(=O)[*:2])c2ccc3ccccc3c21; X1 = CC1(C)C(/C=C/C=C/C=C/C=C2/N(CCC(=O)[*:1])c3ccc4ccccc4c3C2(C)C)=[N+](CC(=O)[*:2])c2ccc3ccccc3c21; Cypate = CC1(C)C(/C=C/C=C/C=C/C=C2/N(CCC(=O)*)c3ccc4ccccc4c3C2(C)C)=[N+](CCC(=O)O)c2ccc3ccccc3c21; X3 = CC1(C)C(/C=C/C=C/C=C/C=C2/N(CCC(=O)O)c3ccc4ccccc4c3C2(C)C)=[N+](CC(=O)*)c2ccc3ccccc3c21

Target: Integrin alpha-V/beta-3 (Homo sapiens, UniProt P05106+P06756)
Experiment: Displacement of [125I]echistatin from AlphaV-beta-3 integrin receptor
Type: protein-complex assay

Sequence of Integrin alpha-V/beta-3 (P05106 27-788 limits assumed): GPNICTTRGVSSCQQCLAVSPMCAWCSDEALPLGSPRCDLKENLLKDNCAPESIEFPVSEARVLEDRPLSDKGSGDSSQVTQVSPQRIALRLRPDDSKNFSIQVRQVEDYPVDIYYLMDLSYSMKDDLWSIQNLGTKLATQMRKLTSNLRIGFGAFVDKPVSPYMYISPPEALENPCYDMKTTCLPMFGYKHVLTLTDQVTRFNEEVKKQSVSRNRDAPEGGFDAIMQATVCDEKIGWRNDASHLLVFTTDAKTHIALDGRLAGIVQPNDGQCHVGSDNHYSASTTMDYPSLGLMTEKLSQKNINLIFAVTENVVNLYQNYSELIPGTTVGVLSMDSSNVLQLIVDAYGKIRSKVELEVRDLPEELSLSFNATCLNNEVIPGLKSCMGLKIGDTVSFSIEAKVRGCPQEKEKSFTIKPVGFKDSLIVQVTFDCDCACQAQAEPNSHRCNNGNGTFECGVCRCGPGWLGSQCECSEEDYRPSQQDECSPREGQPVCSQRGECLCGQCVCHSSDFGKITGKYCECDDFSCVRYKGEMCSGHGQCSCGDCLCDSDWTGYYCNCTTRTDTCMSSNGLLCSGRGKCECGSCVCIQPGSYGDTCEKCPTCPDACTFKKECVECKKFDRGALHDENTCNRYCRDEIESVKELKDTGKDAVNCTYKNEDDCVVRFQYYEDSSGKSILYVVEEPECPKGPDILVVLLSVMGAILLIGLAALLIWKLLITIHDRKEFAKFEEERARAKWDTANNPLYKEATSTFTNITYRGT
Sequence of Integrin alpha-V/beta-3 (P06756 31-889 limits assumed): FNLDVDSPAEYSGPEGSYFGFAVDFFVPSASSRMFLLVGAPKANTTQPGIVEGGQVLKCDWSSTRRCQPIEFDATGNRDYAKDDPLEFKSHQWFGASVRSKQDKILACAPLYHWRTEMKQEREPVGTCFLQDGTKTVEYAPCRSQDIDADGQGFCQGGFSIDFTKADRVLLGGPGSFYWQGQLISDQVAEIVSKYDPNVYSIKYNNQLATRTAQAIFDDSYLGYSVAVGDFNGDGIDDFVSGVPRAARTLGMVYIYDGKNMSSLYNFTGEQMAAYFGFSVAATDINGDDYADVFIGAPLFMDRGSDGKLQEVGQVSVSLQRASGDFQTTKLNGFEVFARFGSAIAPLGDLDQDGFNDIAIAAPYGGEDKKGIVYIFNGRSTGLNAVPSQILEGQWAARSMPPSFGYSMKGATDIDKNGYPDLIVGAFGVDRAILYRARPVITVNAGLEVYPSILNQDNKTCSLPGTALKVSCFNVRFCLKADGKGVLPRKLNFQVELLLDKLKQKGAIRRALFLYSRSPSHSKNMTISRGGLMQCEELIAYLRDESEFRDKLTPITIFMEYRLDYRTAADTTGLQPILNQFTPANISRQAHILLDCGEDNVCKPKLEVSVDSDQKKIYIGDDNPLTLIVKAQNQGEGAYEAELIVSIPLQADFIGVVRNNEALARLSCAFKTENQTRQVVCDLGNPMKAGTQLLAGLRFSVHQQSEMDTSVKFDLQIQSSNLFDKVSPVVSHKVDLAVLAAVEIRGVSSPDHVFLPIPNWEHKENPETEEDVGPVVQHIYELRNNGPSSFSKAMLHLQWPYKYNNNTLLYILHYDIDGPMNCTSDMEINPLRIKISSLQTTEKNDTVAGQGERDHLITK
Sequence of Integrin alpha-V/beta-3 (P06756 891-1048 limits assumed): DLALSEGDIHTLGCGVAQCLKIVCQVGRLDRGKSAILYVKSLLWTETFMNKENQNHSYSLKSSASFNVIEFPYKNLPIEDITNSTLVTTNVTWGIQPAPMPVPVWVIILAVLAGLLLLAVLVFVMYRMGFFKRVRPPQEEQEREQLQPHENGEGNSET

| Structure (SMILES) | IC50 [nM] |
| --- | --- |
| CC1(C)C(/C=C/C=C/C=C/C=C2/N(CCC(=O)NCCCC[C@@H]3NC(=O)[C@@H](Cc4ccccc4)NC(=O)[C@H](CC(=O)O)NC(=O)CNC(=O)[C@H](CCCNC(=N)N)NC3=O)c3ccc4ccccc4c3C2(C)C)=[N+](CCC(=O)O)c2ccc3ccccc3c21 | 63.9 |
| CC1(C)C(/C=C/C=C/C=C/C=C2/N(CCC(=O)N[C@@H](CCCN=C(N)N)C(=O)NCC(=O)N[C@@H](CC(=O)O)C(=O)N[C@@H](CCCN=C(N)N)C(=O)NCC(=O)N[C@@H](CC(=O)O)C(N)=O)c3ccc4ccccc4c3C2(C)C)=[N+](CC(=O)N[C@@H](CCCN=C(N)N)C(=O)NCC(=O)N[C@@H](CC(=O)O)C(=O)N[C@@H](CCCN=C(N)N)C(=O)NCC(=O)N[C@@H](CC(=O)O)C(N)=O)c2ccc3ccccc3c21 | 104 |
| CC1(C)C(/C=C/C=C/C=C/C=C2/N(CCC(=O)O)c3ccc4ccccc4c3C2(C)C)=[N+](CC(=O)N[C@@H](CCCN=C(N)N)C(=O)NCC(=O)N[C@@H](CC(=O)O)C(=O)N[C@@H](CCCN=C(N)N)C(=O)NCC(=O)N[C@@H](CC(=O)O)C(N)=O)c2ccc3ccccc3c21 | 730 |
| CC1(C)C(/C=C/C=C/C=C/C=C2/N(CCC(=O)N[C@@H](CCCN=C(N)N)C(=O)NCC(=O)N[C@@H](CC(=O)O)C(=O)N[C@@H](CCCN=C(N)N)C(=O)NCC(=O)N[C@@H](CC(=O)O)C(=O)N[C@@H](CCCN=C(N)N)C(=O)NCC(=O)N[C@@H](CC(=O)O)C(=O)N[C@@H](CCCN=C(N)N)C(=O)NCC(=O)N[C@@H](CC(=O)O)C(N)=O)c3ccc4ccccc4c3C2(C)C)=[N+](CCC(=O)O)c2ccc3ccccc3c21 (Cypate-RGDRGDRGDRGD-NH2) | 259 |
| CC1(C)C(/C=C/C=C/C=C/C=C2/N(CCC(=O)N[C@@H](CCCN=C(N)N)C(=O)NCC(=O)N[C@@H](CC(=O)O)C(=O)N[C@@H](CCCN=C(N)N)C(=O)NCC(=O)N[C@@H](CC(=O)O)C(=O)N[C@@H](CCCN=C(N)N)C(=O)NCC(=O)N[C@@H](CC(=O)O)C(N)=O)c3ccc4ccccc4c3C2(C)C)=[N+](CC(=O)N[C@@H](CCCN=C(N)N)C(=O)NCC(=O)N[C@@H](CC(=O)O)C(=O)N[C@@H](CCCN=C(N)N)C(=O)NCC(=O)N[C@@H](CC(=O)O)C(=O)N[C@@H](CCCN=C(N)N)C(=O)NCC(=O)N[C@@H](CC(=O)O)C(N)=O)c2ccc3ccccc3c21 (I: RGDRGDRGD-NH2 / II: RGDRGDRGD-NH2; linker I:N-II:N via X1) | 132 |
| CC1(C)C(/C=C/C=C/C=C/C=C2/N(CCC(=O)N[C@@H](CCCN=C(N)N)C(=O)NCC(=O)N[C@@H](CC(=O)O)C(=O)N[C@@H](CCCN=C(N)N)C(=O)NCC(=O)N[C@@H](CC(=O)O)C(=O)N[C@@H](CCCN=C(N)N)C(=O)NCC(=O)N[C@@H](CC(=O)O)C(=O)N[C@@H](CCCN=C(N)N)C(=O)NCC(=O)N[C@@H](CC(=O)O)C(N)=O)c3ccc4ccccc4c3C2(C)C)=[N+](CCC(=O)N[C@@H](CCCN=C(N)N)C(=O)NCC(=O)N[C@@H](CC(=O)O)C(=O)N[C@@H](CCCN=C(N)N)C(=O)NCC(=O)N[C@@H](CC(=O)O)C(=O)N[C@@H](CCCN=C(N)N)C(=O)NCC(=O)N[C@@H](CC(=O)O)C(=O)N[C@@H](CCCN=C(N)N)C(=O)NCC(=O)N[C@@H](CC(=O)O)C(N)=O)c2ccc3ccccc3c21 (I: RGDRGDRGDRGD-NH2 / II: RGDRGDRGDRGD-NH2; linker I:N-II:N via X2) | 79.6 |
| CC1(C)C(/C=C/C=C/C=C/C=C2/N(CCC(=O)O)c3ccc4ccccc4c3C2(C)C)=[N+](CC(=O)N[C@@H](CCCN=C(N)N)C(=O)NCC(=O)N[C@@H](CC(=O)O)C(=O)N[C@@H](CCCN=C(N)N)C(=O)NCC(=O)N[C@@H](CC(=O)O)C(=O)N[C@@H](CCCN=C(N)N)C(=O)NCC(=O)N[C@@H](CC(=O)O)C(N)=O)c2ccc3ccccc3c21 (X3-RGDRGDRGD-NH2) | 481 |
